# Results as given in patent publication US11969428B2, “Methods and pharmaceutical compositions for treating lymphoid malignancy” (priority 2011, dated 2024).
# Test system: platelets
# Assay: ADP-induced platelet aggregation
# Type: cell-based, mouse
# Conditions: platelets from p110γ/δ double knockout mice 2 hours post administration of CAL-130 (10 mg kg−1)
# Experimental: Blood was obtained from anesthetized p110δ/γ double knockout mice via cardiac puncture. Platelets were purified from PRP by centrifugation and resuspended to a final concentration of […] in buffer (145 mM NaCl, 10 mM Hepes, 0.5 mM Na2HPO4, 5 mM KCl, 2 mM MgCl2, 1 mM CaCl2, 0.1% glucose, pH 7.4). CAL-130 (1 μM, 2.5 μM, or 5 μM final concentration) or DMSO was added to platelet suspensions 5 minutes prior to inducing aggregation with ADP (25 μM). Mouse fibrinogen (final concentration 200 μg/ml) was also added to the platelet suspensions just prior to activation as previously described (Magallon et al., 2011). Aggregation was assessed using a Chronolog Lumi-Aggregometer (model 540 VS, Chronolog, Havertown, PA). In some experiments, blood was collected 2 hours after administering a single dose of CAL-130 (10 mg kg^−1) or vehicle control and ADP-induced aggregation evaluated.
structure (smiles),measurement,value
Cc1ccccc1-n1c(C(C)Nc2nc(N)nc3nc[nH]c23)nc2cccc(C)c2c1=O (stereo not shown) [CAL-130],ADP-mediated platelet aggregation,no obvious defect
